# Target: T1, L-CPT1 (human liver CPT1) (Homo sapiens, UniProt P50416)
# T1 construct: made in house; host or cells: Pichia pastoris strain X-33 (pGAPZB/pGAPZA), crude cell-free extract
# T1 sequence (P50416 1-773): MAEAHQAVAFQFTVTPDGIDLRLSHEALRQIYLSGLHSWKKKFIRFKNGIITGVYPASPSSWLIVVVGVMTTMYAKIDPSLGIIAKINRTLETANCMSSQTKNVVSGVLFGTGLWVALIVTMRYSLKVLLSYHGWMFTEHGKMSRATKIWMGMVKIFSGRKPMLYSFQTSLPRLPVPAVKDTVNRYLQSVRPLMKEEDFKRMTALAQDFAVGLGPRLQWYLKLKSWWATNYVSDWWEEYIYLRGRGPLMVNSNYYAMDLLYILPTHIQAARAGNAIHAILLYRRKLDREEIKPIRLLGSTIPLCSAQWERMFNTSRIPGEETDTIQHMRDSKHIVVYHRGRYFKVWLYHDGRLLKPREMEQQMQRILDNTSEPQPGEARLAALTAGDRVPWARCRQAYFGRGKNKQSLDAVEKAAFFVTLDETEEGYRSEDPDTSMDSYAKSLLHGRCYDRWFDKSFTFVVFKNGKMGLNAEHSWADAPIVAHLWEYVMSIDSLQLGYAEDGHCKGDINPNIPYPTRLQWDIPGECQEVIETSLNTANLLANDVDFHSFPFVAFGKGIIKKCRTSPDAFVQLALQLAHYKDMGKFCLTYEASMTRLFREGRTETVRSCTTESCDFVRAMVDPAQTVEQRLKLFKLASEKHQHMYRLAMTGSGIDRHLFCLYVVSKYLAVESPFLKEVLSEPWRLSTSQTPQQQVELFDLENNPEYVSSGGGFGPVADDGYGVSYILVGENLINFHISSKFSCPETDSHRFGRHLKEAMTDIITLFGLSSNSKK
# Test: L-CPT1 inhibition, spectrophotometric CPT activity assay with DTNB (Ellman's reagent)
# Type: biochemical
# Conditions: cell-free extracts of P. pastoris expressing human liver CPT1; carnitine 500 μM, palmitoyl-CoA 80 μM, DTNB 300 μM, pH 7.4
# Experimental: The following tests were carried out in order to determine the activity of the compounds of the present invention. Background information on the performed assays can be found in: Jackson et al., 1999, Biochem. J. 341, 483-489 and Jackson et al., 2000, J. Biol. Chem. 275, 19560-19566.
# Human liver and muscle CPT1 cDNAs and rat CPT2 cDNA were subcloned in pGAPZB or pGAPZA, respectively. These plasmids were used to transform P. pastoris strain X-33 via electroporation after the preparation of electrocompetent cells. High copy number clones were selected where necessary using 0.5 or 1 mg/ml Zeocin. Cultures for activity measurements were induced for 16 h in YPD medium (1% yeast extract, 2% peptone, 2% glucose). Crude cell extracts were prepared by disrupting the cells with glass beads or French Press, depending on fermenter sizes. After centrifugation, the cell-free extracts were resuspended in cell breaking buffer (50 mM Tris, pH7.4, 100 mM KCl, 1 mM EDTA) in the presence of a protease inhibitor cocktail, before aliquoting and freezing at −20° C.
# CPT activity was measured using a spectrophotometric assay using 5,5′-dithio-bis-(2-nitrobenzoic acid) (DTNB) also called Ellman's reagent. The HS-CoA released on the formation of acylcarnitine from carnitine (500 μM) and palmitoyl-CoA (80 μM) reduced DTNB (300 μM) forming 5-mercapto-(2-nitrobenzoic acid) which absorbed at 410 nm with a molar extinction coefficient of 13600 M^−1.cm^−1. The assay buffer contained 120 mM KCl, 25 mM Tris, pH 7.4, 1 mM EDTA. This assay was used for the identification of selective inhibitors of the liver CPT1 isoform versus the muscle CPT1 and CPT2 isoforms.
row,SMILES,IC50
1,"COc1ccc(Cl)cc1S(=O)(=O)N1CCOc2ccc(C(=O)Nc3ccc(C(=O)O)c(F)c3)cc21 [Example 2, 4-{[4-(5-Chloro-2-methoxy-benzenesulfonyl)-3,4-dihydro-2H-benzo[1,4]oxazine-6-carbonyl]-amino}-2-fluoro-benzoic acid]",78 nM
2,"COc1ccc(Cl)cc1S(=O)(=O)N1COc2ccc(C(=O)Nc3ccc(C(=O)O)c(F)c3)cc21 [Example 32, 4-{[3-(5-Chloro-2-methoxy-benzenesulfonyl)-2,3-dihydro-benzooxazole-5-carbonyl]-amino}-2-fluoro-benzoic acid]",140 nM
3,"COc1ccc(Cl)cc1S(=O)(=O)N1COCc2ccc(C(=O)Nc3ccc(C(=O)O)cc3)cc21 [Example 73, 4-{[1-(5-Chloro-2-methoxy-benzenesulfonyl)-1,4-dihydro-2H-benzo[d][1,3]oxazine-7-carbonyl]-amino}-benzoic acid]",56 nM
4,"O=C(O)Cc1csc(NC(=O)c2ccc3c(c2)N(S(=O)(=O)c2cccc(Cl)c2)CCO3)n1 [Example 92, (2-{[4-(3-Chloro-benzenesulfonyl)-3,4-dihydro-2H-benzo[1,4]oxazine-6-carbonyl]-amino}-thiazol-4-yl)-acetic acid]",23 nM
5,"COc1ccc(Cl)cc1S(=O)(=O)N1CC(C(=O)O)Oc2ccc(C(=O)Nc3cccc(F)c3)cc21 (centres unmarked) [Example 113, 4-(5-Chloro-2-methoxy-benzenesulfonyl)-6-(3-fluoro-phenylcarbamoyl)-3,4-dihydro-2H-benzo[1,4]oxazine-2-carboxylic acid]",16 nM
